According to patent US8372823B2, “Tetracyclic inhibitors of fatty acid amide hydrolase” (The Scripps Research Institute, priority 2007, dated 2013):

Molecular target: T1, purified recombinant rat FAAH (Rattus norvegicus, UniProt P97612)
T1 construct: made in house; host or cells: E. coli
T1 sequence (P97612 1-579): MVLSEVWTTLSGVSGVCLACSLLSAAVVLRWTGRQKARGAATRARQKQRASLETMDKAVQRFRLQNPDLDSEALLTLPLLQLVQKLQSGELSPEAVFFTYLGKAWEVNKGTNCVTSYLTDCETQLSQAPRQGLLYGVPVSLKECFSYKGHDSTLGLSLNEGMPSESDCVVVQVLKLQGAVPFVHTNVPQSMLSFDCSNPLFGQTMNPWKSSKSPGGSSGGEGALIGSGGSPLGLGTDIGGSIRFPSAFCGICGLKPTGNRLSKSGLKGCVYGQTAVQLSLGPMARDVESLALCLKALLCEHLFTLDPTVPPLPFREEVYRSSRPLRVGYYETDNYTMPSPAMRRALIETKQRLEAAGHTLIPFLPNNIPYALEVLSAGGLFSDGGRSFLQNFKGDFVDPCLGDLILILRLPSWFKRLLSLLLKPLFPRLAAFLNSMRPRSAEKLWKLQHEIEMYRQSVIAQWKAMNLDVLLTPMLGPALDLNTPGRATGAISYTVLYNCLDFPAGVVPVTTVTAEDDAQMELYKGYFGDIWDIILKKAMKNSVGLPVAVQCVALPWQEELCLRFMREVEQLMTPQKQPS
Test: FAAH enzyme assay, Ki (Dixon plot), rat FAAH
Assay type: biochemical
Conditions: purified recombinant rat FAAH expressed in E. coli; 14C-oleamide hydrolysis; pH 9.0; 20-23° C.

Structure (SMILES) | Ki
COC(=O)c1cccc(-c2cnc(C(=O)CCc3ccc(-c4ccc(CN5CCCC5)cc4)cc3)o2)n1 [Example 37] | 18 nM
COC(=O)c1cccc(-c2cnc(C(=O)CCc3ccc(-c4ccc(CN5CCN(C)CC5)cc4)cc3)o2)n1 [Example 39, 6-(2-{3-[4′-(4-Methyl-piperazin-1-ylmethyl)-biphenyl-4-yl]-propionyl}-oxazol-5-yl)-pyridine-2-carboxylic acid methyl ester] | 200 nM
COC(=O)c1cccc(-c2cnc(C(=O)CCc3ccc(-c4ccc(CN5CCSCC5)cc4)cc3)o2)n1 [Example 36, 6-{2-[3-(4′-Thiomorpholin-4-ylmethyl-biphenyl-4-yl)-propionyl]-oxazol-5-yl}-pyridine-2-carboxylic acid methyl ester] | 5 nM
CN(C)Cc1ccc(-c2ccc(CCC(=O)c3ncc(-c4cccc(C(=O)O)n4)o3)cc2)cc1 [Example 44, 6-{2-[3-(4′-Dimethylaminomethyl-biphenyl-4-yl)-propionyl]-oxazol-5-yl}-pyridine-2-carboxylic acid] | 150 nM
CN1CCN(Cc2ccc(-c3ccc(CCC(=O)c4ncc(-c5cccc(C(=O)O)n5)o4)cc3)cc2)CC1 [Example 45, 6-(2-{3-[4′-(4-Methyl-piperazin-1-ylmethyl)-biphenyl-4-yl]-propionyl}-oxazol-5-yl)-pyridine-2-carboxylic acid] | 1230 nM
O=C(CCc1ccc(COc2ccccc2)cc1)c1ncc(-c2cccc(-c3nnn[nH]3)n2)o1 [Example 47, 3-(4-Phenoxymethyl-phenyl)-1-{5-[6-(1H-tetrazol-5-yl)-pyridin-2-yl]-oxazol-2-yl}-propan-1-one] | 21 nM
N#Cc1cccc(-c2cnc(C(=O)CCc3ccc(COc4ccccc4)cc3)o2)n1 [Example 48] | 3 nM
COC(=O)c1cccc(-c2cnc(C(=O)CCc3ccc(-c4ccc(CN5CCCCC5)cc4)cc3)o2)n1 [Example 34, 6-{2-[3-(4′-Piperidin-1-ylmethyl-biphenyl-4-yl)-propionyl]-oxazol-5-yl}-pyridine-2-carboxylic acid methyl ester] | 9 nM
O=C(O)c1cccc(-c2cnc(C(=O)CCc3ccc(-c4ccc(CN5CCCC5)cc4)cc3)o2)n1 [Example 43, 6-{2-[3-(4′-Pyrrolidin-1-ylmethyl-biphenyl-4-yl)-propionyl]-oxazol-5-yl}-pyridine-2-carboxylic acid] | 127 nM
COC(=O)c1cccc(-c2cnc(C(=O)CCc3ccc(-c4ccc(CN(C)C)cc4)cc3)o2)n1 [Example 38] | 29 nM

Other lines, results leading:

Ki | Structure (SMILES)
2100 nM | O=C(COc1cccc(OCc2ccccc2)c1)c1ncc(-c2ccccn2)o1 [Example 11d, 2-(3-(Benzyloxy)phenoxy)-1-(5-(pyridin-2-yl)oxazol-2-yl)ethanone]
25 nM | O=C(CCc1cccc(OCc2ccccc2)c1)c1ncc(-c2ccccn2)o1 [Example 11c, 1-Oxo-1-[5-(2-pyridyl)oxazol-2-yl]-3-(3-(benzyloxy)phenyl)-propane]
3.2 nM | O=C(CCc1ccc(Cc2ccccc2)cc1)c1ncc(-c2ccccn2)o1 [Example 11h, 1-Oxo-1-[5-(2-pyridyl)oxazol-2-yl]-3-(4-benzylphenyl)propane]
3.4 nM | O=C(CCc1ccc(Oc2ccccc2)cc1)c1ncc(-c2ccccn2)o1 [Example 11f, 1-Oxo-1-[5-(2-pyridyl)oxazol-2-yl]-3-(4-phenoxyphenyl)propane]
5300 nM | O=C(COc1ccc(OCc2ccccc2)cc1)c1ncc(-c2ccccn2)o1 [Example 11b, 2-(4-(Benzyloxy)phenoxy)-1-(5-(pyridin-2-yl)oxazol-2-yl)ethanone]
2 nM | O=C(CCc1ccc(Nc2ccccc2)cc1)c1ncc(-c2ccccn2)o1 [Example 11g, 1-Oxo-1-[5-(2-pyridyl)oxazol-2-yl]-3-(4-(phenylamino)phenyl)-propane]
2.2 nM | O=C(CCc1ccc(Sc2ccccc2)cc1)c1ncc(-c2ccccn2)o1 [Example 11i, 1-Oxo-1-[5-(2-pyridyl)oxazol-2-yl]-3-(4-(phenylthio)phenyl)propane]
